Results published in patent US10226045B2, “Azoline compounds” (priority 2014, dated 2019).
Read-outs that look alike come from different tables or passages of the source.

Columns and labels:
Assay type in all cases: in vivo
[1] = system: Diamond Back Moth (Plutella xylostella); assay: Diamond back moth, cabbage leaf dip test; settings: foliar
Method: B.1 Diamond Back Moth (Plutella xylostella)
The active compound was dissolved at the desired concentration in a mixture of 1:1 (vol:vol) distilled water:aceteone. Surfactant (Kinetic HV) was added at a rate of 0.01% (vol/vol). The test solution was prepared at the day of use.
Leaves of cabbage were dipped in test solution and air-dried. Treated leaves were placed in petri dishes lined with moist filter paper and inoculated with ten 3rd instar larvae. Mortality was recorded 72 hours after treatment.

[2] = system: Boll Weevil (Anthonomus grandis); assay: Boll weevil, insect diet microtiter plate test; settings: 120 h
Method: B.5 Boll Weevil (Anthonomus grandis)
For evaluating control of boll weevil (Anthonomus grandis) the test unit consisted of 96-well-microtiter plates containing an insect diet and 5-10 A. grandis eggs.
(§1) The compounds were formulated using a solution containing 75% v/v water and 25% v/v DMSO. Different concentrations of formulated compounds were sprayed onto the insect diet at 5 μl, using a custom built micro atomizer, at two replications.
After application, microtiter plates were incubated at about 25±1° C. and about 75±5% relative humidity for 5 days. Egg and larval mortality was then visually assessed.

[3] = system: Tobacco Budworm (Heliothis virescens); assay: Tobacco budworm, insect diet microtiter plate test; settings: 120 h
Method: B.4 Tobacco Budworm (Heliothis virescens)
For evaluating control of tobacco budworm (HeliothiS virescens) the test unit consisted of 96-well-microtiter plates containing an insect diet and 15-25 H. virescens eggs.
The compounds were formulated using a solution containing 75% v/v water and 25% v/v DMSO. Different concentrations of formulated compounds were sprayed onto the insect diet at 10 μl, using a custom built micro atomizer, at two replications.
(§2) After application, microtiter plates were incubated at about 28±1° C. and about 80±5% relative humidity for 5 days. Egg and larval mortality was then visually assessed.

[4] = system: Green Peach Aphid (Myzus persicae); assay: Green peach aphid, systemic test on artificial diet in microtiter plates; settings: 72 h
Text: B.2 Green Peach Aphid (Myzus persicae)
For evaluating control of green peach aphid (Myzus persicae) through systemic means the test unit consisted of 96-well-microtiter plates containing liquid artificial diet under an artificial mem brane.
The compounds were formulated using a solution containing 75% v/v water and 25% v/v DMSO. Different concentrations of formulated compounds were pipetted into the aphid diet, using a custom built pipetter, at two replications.
After application, 5-8 adult aphids were placed on the artificial membrane inside the microtiter plate wells. The aphids were then allowed to suck on the treated aphid diet and incubated at about 23±1° C. and about 50±5% relative humidity for 3 days. Aphid mortality and fecundity was then visually assessed.

[5] = system: Orchid Thrips (dichromothrips corbetti); assay: Orchid thrips, floral-immersion technique
Method: B.7 Orchid Thrips (dichromothrips corbetti)
Dichromothrips corbetti adults used for bioassay were obtained from a colony maintained continuously under laboratory conditions. For testing purposes, the test compound is diluted in a 1:1 mixture of acetone:water (vol:vol), plus Kinetic HV at a rate of 0.01% v/v.
Thrips potency of each compound was evaluated by using a floral-immersion technique. All petals of individual, intact orchid flowers were dipped into treatment solution and allowed to dry in Petri dishes. Treated petals were placed into individual re-sealable plastic along with about 20 adult thrips. All test arenas were held under continuous light and a temperature of about 28° C. for duration of the assay. After 3 days, the numbers of live thrips were counted on each petal. The percent mortality was recorded 72 hours after treatment.

[6] = system: Vetch Aphid (Megoura viciae); assay: Vetch aphid, broad bean leaf disk test; settings: foliar, 120 h
Method: B.3 Vetch Aphid (Megoura viciae)
For evaluating control of vetch aphid (Megoura viciae) through contact or systemic means the test unit consisted of 24-well-microtiter plates containing broad bean leaf disks.
The compounds were formulated using a solution containing 75% v/v water and 25% v/v DMSO. Different concentrations of formulated compounds were sprayed onto the leaf disks at 2.5 μl, using a custom built micro atomizer, at two replications.
After application, the leaf disks were air-dried and 5-8 adult aphids placed on the leaf disks inside the microtiter plate wells. The aphids were then allowed to suck on the treated leaf disks and incubated at about 23±1° C. and about 50±5% relative humidity for 5 days. Aphid mortality and fecundity was then visually assessed.

[7] = system: Neotropical Brown Stink Bug (Euschistus heros); assay: Neotropical brown stink bug, sprayed soybean pods in cups; settings: 120 h
Method: B.12 Neotropical Brown Stink Bug (Euschistus heros)
(§3) The active compound was dissolved at the desired concentration in a mixture of 1:1 (vol:vol) distilled water: acetone. Surfactant (Kinetic HV) was added at a rate of 0.01% (vol/vol). The test solution was prepared at the day of use.
Soybean pods were placed in microwavable plastic cups and inoculated with ten adult stage E. heros. Using a hand atomizer, approximately 1 ml solution is sprayed into each cup, insects and food present. A water source was provided (cotton wick with water). Each treatment was replicated 2-fold. Assay arenas were kept at about 25° C. Percent mortality was recorded after 5 days.

[8] = system: Mediterranean Fruitfly (Ceratitis capitata); assay: Mediterranean fruitfly, insect diet microtiter plate test; settings: 120 h
Method: B.6 Mediterranean Fruitfly (Ceratitis capitata)
as §1, with “For evaluating control of Mediterranean fruitfly (CeratitiS capitata) the test unit consisted of microtiter plates containing an insect diet and 50-80 C. capitata eggs. The” for “The”
as §2

[9] = system: Green Soldier Stink Bug (Nezara viridula); assay: Green soldier stink bug, sprayed soybean pods in Petri dishes; settings: 120 h
Method: B.11 Green Soldier Stink Bug (Nezara viridula)
The active compound was dissolved at the desired concentration in a mixture of 1:1 (vol:vol) distilled water:acetone. Surfactant (Kinetic HV) was added at a rate of 0.01% (vol/vol). The test solution was prepared at the day of use.
Soybean pods were placed in glass Petri dishes lined with moist filter paper and inoculated with ten late 3rd instar N. viridula. Using a hand atomizer, approximately 2 ml solution is sprayed into each Petri dish. Assay arenas were kept at about 25° C. Percent mortality was recorded after 5 days.

[10] = system: Brown Marmorated Stink Bug (Halyomorpha halys); assay: Brown marmorated stink bug, sprayed peanuts and soybean seeds in cups; settings: 120 h
Method: B.13 Brown Marmorated Stink Bug (Halyomorpha halys)
as §3
Row peanuts and soybean seeds were placed into microwavable plastic cups and inoculated with five adult stage H. halys. Using a hand atomizer, approximately 1 ml solution is sprayed into each cup, insects and food present. A water source was provided (cotton wick with water). Each treatment is replicated 4-fold. Assay arenas are kept at about 25° C. Percent mortality was recorded after 5 days.

[11] = system: Rice Green Leafhopper (Nephotettix virescens); assay: Rice green leafhopper, sprayed rice seedlings; settings: 72 h
Method: B.8 Rice Green Leafhopper (Nephotettix virescens)
Rice seedlings were cleaned and washed 24 hours before spraying. The active compounds were formulated in 1:1 acetone:water (vol:vol), and 0.01% vol/vol surfactant (Kinetic HV) was added. Potted rice seedlings were sprayed with 5-6 ml test solution, air dried, covered with Mylar cages cages and inoculated with 10 adults. Treated rice plants were kept at about 28-29° C. and relative humidity of about 50-60%. Percent mortality was recorded after 72 hours.

[12] = system: Red Spider Mite (Tetranychus kanzawai); assay: Red spider mite, sprayed cowpea beans; settings: 72 h
Method: B.9 Red Spider Mite (Tetranychus kanzawai)
The active compound was dissolved at the desired concentration in a mixture of 1:1 (vol:vol) distilled water:acetone. Add surfactant (Kinetic HV) was added at a rate of 0.01% (vol/vol). The test solution was prepared at the day of use.
Potted cowpea beans of 4-5 days of age were cleaned with tap water and sprayed with 1-2 ml of the test solution using air driven hand atomizer. The treated plants were allowed to air dry and afterwards inoculated with 30 or more mites by clipping a cassava leaf section from rearing population. Treated plants were placed inside a holding room at about 25-27° C. and about 50-60% relative humidity. Percent mortality was assessed 72 hours after treatment.

[13] = system: Southern Armyworm (Spodoptera eridania); assay: Southern armyworm, sprayed lima bean plants; settings: 96 h
Method: B.10 Southern Armyworm (Spodoptera eridania)
The active compounds were formulated in cyclohexanone as a 10,000 ppm solution supplied in tubes. The tubes were inserted into an automated electrostatic sprayer equipped with an atomizing nozzle and they served as stock solutions for which lower dilutions were made in 50% acetone:50% water (v/v). A nonionic surfactant (Kinetic®) was included in the solution at a volume of 0.01% (v/v).
Lima bean plants (variety Sieva) were grown 2 plants to a pot and selected for treatment at the 1st true leaf stage. Test solutions were sprayed onto the foliage by an automated electrostatic plant sprayer equipped with an atomizing spray nozzle. The plants were dried in the sprayer fume hood and then removed from the sprayer. Each pot was placed into perforated plastic bags with a zip closure. About 10 to 11 armyworm larvae were placed into the bag and the bags zipped closed. Test plants were maintained in a growth room at about 25° C. and about 20-40% relative humidity for 4 days, avoiding direct exposure to fluorescent light (24 hour photoperiod) to prevent trapping of heat inside the bags. Mortality and reduced feeding were assessed 4 days after treatment, compared to untreated control plants.

[14] = 2500 ppm, adult aphids on treated artificial diet, 3 days, in comparison with untreated controls, read-out: mortality
[15] = 2500 ppm, eggs on sprayed insect diet, egg and larval mortality after 5 days, in comparison with untreated controls, read-out: mortality

O=C(O)c1ccc(C2=NOC(c3cc(Cl)c(F)c(Cl)c3)(C(F)(F)F)C2)c2c1CCC2 (centres unmarked) [Compound 1-2, 7-[5-(3,5-Dichloro-4-fluoro-phenyl)-5-(trifluoromethyl)-4H-isoxazol-3-yl]indane-4-carboxylic acid]
≥ 75%: mortality at 300 ppm ([1]; 72 h) | mortality at 2500 ppm [2] | mortality at 2500 ppm [3]

COC(=O)c1ccc(C2=NCC(c3cc(Cl)c(F)c(Cl)c3)(C(F)(F)F)C2)c2c1CCC2 (centres unmarked) [Compound 2-2, Methyl 7-[3-(3,5-dichloro-4-fluoro-phenyl)-3-(trifluoromethyl)-2,4-dihydropyrrol-5-yl]indane-4-carboxylate]
≥ 75%: mortality at 2500 ppm [4, 14] | mortality at 2500 ppm [2, 15] | mortality at 2500 ppm [3, 15] | mortality at 300 ppm ([5]; 300 ppm, adult thrips on dipped orchid petals, 72 hours after treatment, in comparison with untreated controls, read-out: mortality) | mortality at 2500 ppm ([6]; 2500 ppm, adult aphids on sprayed broad bean leaf disks, 5 days, in comparison with untreated controls, read-out: mortality)

O=C(NCC1CC1)c1ccc(C2=NOC(c3cc(Cl)c(F)c(Cl)c3)(C(F)(F)F)C2)c2c1CCC2 (centres unmarked) [Compound 1-3, N-(Cyclopropylmethyl)-7-[5-(3,5-dichloro-4-fluoro-phenyl)-5-(trifluoromethyl)-4H-isoxazol-3-yl]indane-4-carboxamide]
≥ 75%: mortality at 100 ppm [7] | mortality at 2500 ppm [4] | mortality at 300 ppm ([1]; 72 h) | mortality at 2500 ppm [8] | mortality at 2500 ppm [2] | mortality at 300 ppm [9] | mortality at 2500 ppm [3] | mortality at 100 ppm [10] | mortality at 300 ppm ([5]; Thrips, 72 h) | mortality at 300 ppm [11] | mortality at 2500 ppm [6] | mortality at 300 ppm [12]

O=C(NCC(F)(F)F)c1ccc(C2=NOC(c3cc(Cl)cc(Cl)c3)(C(F)(F)F)C2)c2c1CCCC2 (centres unmarked) [Compound 3-5, 8-[5-(3,5-dichlorophenyl)-5-(trifluoromethyl)-4H-isoxazol-3-yl]-N-(2,2,2-trifluoroethyl)tetralin-5-carboxamide]
≥ 75%: mortality at 2500 ppm [4] | mortality at 300 ppm ([1]; 72 h) | mortality at 2500 ppm [8] | mortality at 2500 ppm [2] | mortality at 2500 ppm [3] | mortality at 300 ppm ([5]; Thrips, 72 h) | mortality at 300 ppm [11] | mortality at 2500 ppm [6] | mortality at 300 ppm [12]

O=C(O)c1ccc(C2=NOC(c3cc(Cl)cc(Cl)c3)(C(F)(F)F)C2)c2c1CCCC2 (centres unmarked) [Compound 3-2, 8-[5-(3,5-dichlorophenyl)-5-(trifluoromethyl)-4H-isoxazol-3-yl]tetralin-5-carboxylic acid]
≥ 75%: mortality at 2500 ppm [2]

COC(=O)c1ccc(C2=NOC(c3cc(Cl)c(F)c(Cl)c3)(C(F)(F)F)C2)c2c1CCC2 (centres unmarked) [Compound 1-1, Methyl 7-[5-(3,5-dichloro-4-fluoro-phenyl)-5-(trifluoromethyl)-4H-isoxazol-3-yl]indane-4-carboxylate]
≥ 75%: mortality at 300 ppm ([1]; 72 h) | mortality at 2500 ppm [8] | mortality at 2500 ppm [2] | mortality at 2500 ppm [3] | mortality at 300 ppm ([5]; Thrips, 72 h) | mortality at 2500 ppm [6]

O=C(O)c1ccc(C2=NCC(c3cc(Cl)c(F)c(Cl)c3)(C(F)(F)F)C2)c2c1CCC2 (centres unmarked) [Compound 2-1, 7-[3-(3,5-Dichloro-4-fluoro-phenyl)-3-(trifluoromethyl)-2,4-dihydropyrrol-5-yl]indane-4-carboxylic acid]
≥ 75%: mortality at 2500 ppm [4, 14] | mortality at 300 ppm ([1]; 300 ppm, 3rd instar larvae on dipped cabbage leaves, 72 hours after treatment, in comparison with untreated controls, read-out: mortality) | mortality at 2500 ppm [2, 15] | mortality at 2500 ppm [3, 15]

O=C(NCc1ccccn1)c1ccc(C2=NOC(c3cc(Cl)cc(Cl)c3)(C(F)(F)F)C2)c2c1CCC2 (centres unmarked) [Compound 1-27, 7-[5-(3,5-dichlorophenyl)-5-(trifluoromethyl)-4H-isoxazol-3-yl]-N-(2-pyridylmethyl)indane-4-carboxamide]
≥ 75%: mortality at 1 ppm [13] | mortality at 100 ppm [7] | mortality at 2500 ppm [4] | mortality at 300 ppm ([1]; 72 h) | mortality at 2500 ppm [8] | mortality at 2500 ppm [2] | mortality at 300 ppm [9] | mortality at 2500 ppm [3] | mortality at 100 ppm [10] | mortality at 300 ppm ([5]; Thrips, 72 h) | mortality at 300 ppm [11] | mortality at 2500 ppm [6] | mortality at 300 ppm [12]
